US5015737A, “Therapeutically useful beta-lactams” (The Upjohn Company, priority 1990, dated 1991)
In brackets after ≈: the same amount, converted by molar mass. Where two headings read alike, the source gives them in different places.

Legend:
Test in all cases: MIC determination by agar dilution (Mueller Hinton Agar)
Type in all cases: cell-based
[1] = system: Klebsiella pneumoniae; settings: Culture Number 58, 35° C., 20 hours, read-out: Minimum Inhibitory Concentration
Procedure: (§1) The compounds of this invention and their respective pharmaceutically acceptable salts have antibiotic activity against a variety of gram-negative bacteria including Escherichia coli, Klebsiella pneumoniae and Pseudomonas aeruginosa. The compounds are useful for treating bacterial infections in animals, including and most preferably humans. Compounds of the invention are tested for in vitro antimicrobial activity using standard testing procedures such as the determination of minimum inhibitory concentration (MIC) by methods described in "Methods for Dilution Antimicrobial Susceptibility Tests for Bacteria That Grow Aerobically" (M7-A) Published December 1985 by the National Committee for Clinical Laboratory standards, 771 East Lancaster Avenue, Villanova, Pa., 19084. Briefly, MIC values are determined in unsupplemented Mueller Hinton Agar (MHA). The compounds tested are diluted serially into molten MHA at 47° C. The agar is poured into petri dishes and allowed to harden. The various bacteria used for testing are grown overnight on MHA at 35° C. and transferred to Tryptiease Soy Broth (TSB) until a turbidity of 0.5 McFarland standard is obtained. The bacteria are diluted one to twenty in TSB and inoculated on the plates (1 μl using a Steers replicator). […] The MIC test results of four typical compounds of this invention.

[2] = system: Proteus vulgaris; settings: Culture Number 9679, 35° C., 20 hours, read-out: Minimum Inhibitory Concentration
Procedure: as §1

[3] = system: Staphylococcus aureus; settings: 35° C., 20 hours; for MIC: Staphylococcus aureus, read-out: Minimum Inhibitory Concentration
Procedure: as §1

[4] = system: Klebsiella oxytoca; settings: 20 h, read-out: Minimum Inhibitory Concentration
Procedure: as §1

[5] = system: Enterobacter cloacae; settings: 20 h, read-out: Minimum Inhibitory Concentration
Procedure: as §1

[6] = system: Streptococcus faecalis; settings: Enterococcus faecalis, 35° C., 20 hours, read-out: Minimum Inhibitory Concentration
Procedure: as §1

[7] = system: Escherichia coli; settings: 20 h, read-out: Minimum Inhibitory Concentration
Procedure: as §1

[8] = system: Streptococcus pneumoniae; settings: Culture Number 41, 35° C., 20 hours, read-out: Minimum Inhibitory Concentration
Procedure: as §1

[9] = system: Pseudomonas aeruginosa; settings: 20 h, read-out: Minimum Inhibitory Concentration
Procedure: as §1

[10] = system: Citrobacter freundii; settings: Culture Number 3507, 35° C., 20 hours, read-out: Minimum Inhibitory Concentration
Procedure: as §1

[11] = system: Serratia marcescens; settings: Culture Number 6888, 35° C., 20 hours, read-out: Minimum Inhibitory Concentration
Procedure: as §1

[12] = system: Streptococcus pyogenes; settings: Culture Number 152, 35° C., 20 hours, read-out: Minimum Inhibitory Concentration
Procedure: as §1

[13] = system: Acinetobacter calcoaceticus; settings: Culture Number 12170, 35° C., 20 hours, read-out: Minimum Inhibitory Concentration
Procedure: as §1

[14] = system: Acinetobacter sp.; settings: Culture Number 30278, 35° C., 20 hours, read-out: Minimum Inhibitory Concentration
Procedure: as §1

[15] = system: Staphylococcus epidermis; settings: Culture Number 30031, 35° C., 20 hours, read-out: Minimum Inhibitory Concentration
Procedure: as §1

Row | Compound | MIC [1] [µg/mL] | MIC [2] [µg/mL] | Minimum Inhibitory Concentration ([3]; Culture Number 6685) [µg/mL] | Minimum Inhibitory Concentration ([3]; Culture Number 9213) [µg/mL] | Minimum Inhibitory Concentration ([3]; Culture Number 9218) [µg/mL] | MIC ([3]; Culture Number 3665) [µg/mL] | MIC ([4]; Culture Number 9383, 35° C.) [µg/mL] | MIC ([4]; Culture Number 9384, 35° C.) [µg/mL] | MIC ([5]; Culture Number 9381, 35° C.) [µg/mL] | MIC ([5]; Culture Number 9382, 35° C.) [µg/mL] | MIC ([7]; Culture Number 9379, 35° C.) [µg/mL] | MIC ([7]; Culture Number 9380, 35° C.) [µg/mL] | MIC ([7]; Culture Number 9451, 35° C.) [µg/mL] | MIC [8] [µg/mL] | MIC ([9]; Culture Number 231, 35° C.) [µg/mL] | MIC ([9]; Culture Number 6676, 35° C.) [µg/mL] | MIC ([9]; Culture Number 9191, 35° C.) [µg/mL] | MIC [10] [µg/mL] | MIC [11] [µg/mL] | MIC [12] [µg/mL] | other results
1 | C[C@H]1[C@@H](NS(=O)(=O)NC(=O)N2C[C@H](NC(=O)/C(=N\OC(C)(C)C(=O)O)c3csc(N)n3)C2=O)C(=O)NN1C(=O)c1cc(=O)c(O)c[nH]1 [60(p), 3(S)-3-[2-(2-amino-4-thiazoyl)-Z-(2)-(carboxyisopropyloxyimino)-acetamido]-1-[(3-hydroxy-4-pyridon-6-yl)-1-carbonyl-5(S)-methyl-pyrazolidinone-4(R)-amino]-sulfonylaminocarbonyl-2-azetidinone] | 0.5 (≈ 0.716 µM) | 0.06 (≈ 0.0859 µM) | > 64 | > 64 | > 64 | > 64 | 0.125 (≈ 0.179 µM) | 0.06 (≈ 0.0859 µM) | 8 (≈ 11.5 µM) | 2 (≈ 2.86 µM) | 0.03 (≈ 0.0429 µM) | 0.015 (≈ 0.0215 µM) | 0.015 (≈ 0.0215 µM) | > 64 | 0.125 (≈ 0.179 µM) | 0.25 (≈ 0.358 µM) | 0.06 (≈ 0.0859 µM) | 0.06 (≈ 0.0859 µM) | 0.06 (≈ 0.0859 µM) | > 64 | MIC ([6]; Culture Number 9217): > 64 µg/mL; MIC ([7]; Culture Number 9952, 35° C.): 0.015 µg/mL (≈ 0.0215 µM); MIC [13]: 1 µg/mL (≈ 1.43 µM)
2 | CC(C)(O/N=C(\C(=O)N[C@H]1CN(C(=O)NS(=O)(=O)N[C@@H]2CN(C(=O)c3cc(=O)c(O)c[nH]3)NC2=O)C1=O)c1csc(N)n1)C(=O)O [60(d), 3(S)-3-[2-(2-Amino-4-thiazolyl)-Z-(2)(carboxyisopropyloxyimino)-acetamido]-1-[(3-hydroxy-4-pyridon-6-yl)-1-carbonyl-pyrazolidinone-4(R)-amino]-sulfonyl-aminocarbonyl-2-azetidinone] | 0.5 (≈ 0.73 µM) | 0.06 (≈ 0.0876 µM) | – | – | – | – | 0.125 (≈ 0.183 µM) | 0.125 (≈ 0.183 µM) | 4 (≈ 5.84 µM) | 1 (≈ 1.46 µM) | 0.015 (≈ 0.0219 µM) | < 0.008 | 0.015 (≈ 0.0219 µM) | > 64 | 0.25 (≈ 0.365 µM) | 2 (≈ 2.92 µM) | 0.125 (≈ 0.183 µM) | 0.06 (≈ 0.0876 µM) | 0.03 (≈ 0.0438 µM) | > 64 | MIC ([3]; Culture Number 9218): 64 µg/mL (≈ 93.5 µM); MIC [14]: 1 µg/mL (≈ 1.46 µM)
3 | C[C@H]1[C@H](NS(=O)(=O)NC(=O)N2C[C@H](NC(=O)/C(=N\OC(C)(C)C(=O)O)c3csc(N)n3)C2=O)C(=O)NN1C(=O)c1cc(=O)c(O)c[nH]1 [60(m), 3(S)-3-[2 (2-amino-4-thiazoyl)-Z-(2)(carboxyisopropyloxyimino)-acetamido]-1-[(3-hydroxy-4-pyridon-6-yl) 1-carbonyl-5(S)-methyl-pyrazolidinone-4(S)-amino]-sulfonylaminocarbonyl-2-azetidinone] | 0.5 (≈ 0.716 µM) | 0.06 (≈ 0.0859 µM) | > 64 | > 64 | > 64 | > 64 | 0.25 (≈ 0.358 µM) | 0.06 (≈ 0.0859 µM) | 8 (≈ 11.5 µM) | 2 (≈ 2.86 µM) | 0.03 (≈ 0.0429 µM) | < 0.008 | < 0.008 | > 64 | 0.125 (≈ 0.179 µM) | 0.5 (≈ 0.716 µM) | 0.125 (≈ 0.179 µM) | 0.03 (≈ 0.0429 µM) | 0.06 (≈ 0.0859 µM) | > 64 | MIC ([6]; Culture Number 9217): > 64 µg/mL; MIC ([7]; Culture Number 9952, 35° C.): 0.015 µg/mL (≈ 0.0215 µM); MIC [13]: 2 µg/mL (≈ 2.86 µM)
4 | CC(C)(O/N=C(\C(=O)N[C@H]1CN(C(=O)NS(=O)(=O)N[C@H]2CN(C(=O)c3cc(=O)c(O)c[nH]3)NC2=O)C1=O)c1csc(N)n1)C(=O)O [60(b), 3(S)-3-[2-(2-Amino-4-thiazoyl)-Z-(2)-(carboxyisopropyloxyimino)acetamido]-1-[(3-hydroxy-4-pyridon-6-yl)-1-carbonyl-pyrazolidinone-4-(S)-amino]-sulfonyl-amino-carbonyl-2-azetidinone] | 0.5 (≈ 0.73 µM) | 0.06 (≈ 0.0876 µM) | > 64 | > 64 | – | – | 0.125 (≈ 0.183 µM) | 0.06 (≈ 0.0876 µM) | 8 (≈ 11.7 µM) | 1 (≈ 1.46 µM) | < 0.008 | < 0.008 | < 0.008 | > 64 | 0.25 (≈ 0.365 µM) | – | 0.25 (≈ 0.365 µM) | 0.03 (≈ 0.0438 µM) | 0.03 (≈ 0.0438 µM) | 64 (≈ 93.5 µM) | Minimum Inhibitory Concentration ([3]; Culture Number 3665): > 64 µg/mL; MIC ([3]; Culture Number 9218): > 64 µg/mL; MIC ([6]; Culture Number 694): > 64 µg/mL; MIC [15]: > 64 µg/mL
